Experimental data taken from PubChem BioAssay (NCI).
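Values below derive from 48-hour exposures of cells grown in 96-well plates, with endpoints linearly interpolated between the two concentrations bracketing the appropriate inhibition level. TGI marks complete inhibition of growth.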

Experiments:
Assay in all cases: growth of human tumour cells (NCI), 48 h
786-0 renal = system: 786-0 renal
A498 renal = system: A498 renal
A549 NSCLC = system: A549 NSCLC
ACHN renal = system: ACHN renal
CAKI-1 renal = system: CAKI-1 renal
CCRF-CEM leukemia = system: CCRF-CEM leukemia
COLO 205 colon = system: COLO 205 colon
DLD-1 colon = system: DLD-1 colon
DMS 114 small cell lung = system: DMS 114 small cell lung
EKVX NSCLC = system: EKVX NSCLC
HCC-2998 colon = system: HCC-2998 colon
HL-60(TB) leukemia = system: HL-60(TB) leukemia
HOP-62 NSCLC = system: HOP-62 NSCLC
HOP-92 NSCLC = system: HOP-92 NSCLC
HT29 colon = system: HT29 colon
IGROV1 ovarian = system: IGROV1 ovarian
K-562 leukemia = system: K-562 leukemia
KM12 colon = system: KM12 colon
KM20L2 colon = system: KM20L2 colon
LOX IMVI melanoma = system: LOX IMVI melanoma
LXFL 529 NSCLC = system: LXFL 529 NSCLC
M14 melanoma = system: M14 melanoma
M19-MEL melanoma = system: M19-MEL melanoma
MALME-3M melanoma = system: MALME-3M melanoma
MOLT-4 leukemia = system: MOLT-4 leukemia
NCI-H226 lung = system: NCI-H226 lung
NCI-H23 lung = system: NCI-H23 lung
NCI-H460 lung = system: NCI-H460 lung
NCI-H522 lung = system: NCI-H522 lung
OVCAR-3 ovarian = system: OVCAR-3 ovarian
OVCAR-4 ovarian = system: OVCAR-4 ovarian
OVCAR-5 ovarian = system: OVCAR-5 ovarian
OVCAR-8 ovarian = system: OVCAR-8 ovarian
RPMI-8226 leukemia = system: RPMI-8226 leukemia
RXF 393 renal = system: RXF 393 renal
SF-268 CNS = system: SF-268 CNS
SF-295 CNS = system: SF-295 CNS
SF-539 CNS = system: SF-539 CNS
SK-MEL-2 melanoma = system: SK-MEL-2 melanoma
SK-MEL-28 melanoma = system: SK-MEL-28 melanoma
SK-MEL-5 melanoma = system: SK-MEL-5 melanoma
SK-OV-3 ovarian = system: SK-OV-3 ovarian
SN12C renal = system: SN12C renal
SNB-19 CNS = system: SNB-19 CNS
SNB-75 CNS = system: SNB-75 CNS
SNB-78 CNS = system: SNB-78 CNS
SW-620 colon = system: SW-620 colon
TK-10 renal = system: TK-10 renal
U251 CNS = system: U251 CNS
UACC-257 melanoma = system: UACC-257 melanoma
UO-31 renal = system: UO-31 renal
XF 498 CNS = system: XF 498 CNS
DMS 273 small cell lung = system: DMS 273 small cell lung
HCT-116 colon = system: HCT-116 colon
HCT-15 colon = system: HCT-15 colon
UACC-62 melanoma = system: UACC-62 melanoma

Compound: CC1=C(C(=O)Nc2cc(F)c(F)cc2F)C(c2ccc3c(c2)OCO3)C(C(=O)Nc2cc(F)c(F)cc2F)=C(C)N1
- TGI (786-0 renal): 42.9 µM
- TGI (A498 renal): 65.2 µM
- TGI (A549 NSCLC): 79.1 µM
- TGI (ACHN renal): 60.6 µM
- TGI (CAKI-1 renal): 43.5 µM
- TGI (CCRF-CEM leukemia): 55.1 µM
- TGI (COLO 205 colon): 53.6 µM
- TGI (DLD-1 colon): 75.1 µM
- TGI (DMS 114 small cell lung): 52.1 µM
- TGI (EKVX NSCLC): 73.1 µM
- TGI (HCC-2998 colon): 39 µM
- TGI (HL-60(TB) leukemia): 36 µM
- TGI (HOP-62 NSCLC): 65.1 µM
- TGI (HOP-92 NSCLC): 25 µM
- TGI (HT29 colon): 61.4 µM
- TGI (IGROV1 ovarian): > 100 µM
- TGI (K-562 leukemia): 53.8 µM
- TGI (KM12 colon): 46 µM
- TGI (KM20L2 colon): 62.5 µM
- TGI (LOX IMVI melanoma): 35.3 µM
- TGI (LXFL 529 NSCLC): 80.4 µM
- TGI (M14 melanoma): > 100 µM
- TGI (M19-MEL melanoma): 67 µM
- TGI (MALME-3M melanoma): 69.4 µM
- TGI (MOLT-4 leukemia): 46.5 µM
- TGI (NCI-H226 lung): 85.3 µM
- TGI (NCI-H23 lung): 71.1 µM
- TGI (NCI-H460 lung): 78.7 µM
- TGI (NCI-H522 lung): 41.6 µM
- TGI (OVCAR-3 ovarian): 40.6 µM
- TGI (OVCAR-4 ovarian): 77.7 µM
- TGI (OVCAR-5 ovarian): 59.9 µM
- TGI (OVCAR-8 ovarian): > 100 µM
- TGI (RPMI-8226 leukemia): 52.9 µM
- TGI (RXF 393 renal): 35.6 µM
- TGI (SF-268 CNS): > 100 µM
- TGI (SF-295 CNS): 48.9 µM
- TGI (SF-539 CNS): 87 µM
- TGI (SK-MEL-2 melanoma): 46.7 µM
- TGI (SK-MEL-28 melanoma): > 100 µM
- TGI (SK-MEL-5 melanoma): 52.6 µM
- TGI (SK-OV-3 ovarian): 65.3 µM
- TGI (SN12C renal): 72.7 µM
- TGI (SNB-19 CNS): > 100 µM
- TGI (SNB-75 CNS): 45.4 µM
- TGI (SNB-78 CNS): 62.9 µM
- TGI (SW-620 colon): > 100 µM
- TGI (TK-10 renal): 64.8 µM
- TGI (U251 CNS): > 100 µM
- TGI (UACC-257 melanoma): 71.5 µM
- TGI (UO-31 renal): 40.8 µM
- TGI (XF 498 CNS): 26.8 µM

Compound: O=C(/C=C/c1c(O)ccc2ccccc12)c1ccccc1Cl
- TGI (786-0 renal): > 100 µM
- TGI (A498 renal): > 100 µM
- TGI (A549 NSCLC): > 100 µM
- TGI (ACHN renal): > 100 µM
- TGI (CAKI-1 renal): > 100 µM
- TGI (CCRF-CEM leukemia): 50.7 µM
- TGI (COLO 205 colon): 31.9 µM
- TGI (DLD-1 colon): > 100 µM
- TGI (DMS 114 small cell lung): 53.3 µM
- TGI (DMS 273 small cell lung): > 100 µM
- TGI (EKVX NSCLC): > 100 µM
- TGI (HCC-2998 colon): > 100 µM
- TGI (HCT-116 colon): 61.3 µM
- TGI (HCT-15 colon): > 100 µM
- TGI (HL-60(TB) leukemia): 35.1 µM
- TGI (HOP-62 NSCLC): > 100 µM
- TGI (HOP-92 NSCLC): 75 µM
- TGI (HT29 colon): > 100 µM
- TGI (IGROV1 ovarian): > 100 µM
- TGI (K-562 leukemia): 53.4 µM
- TGI (KM12 colon): > 100 µM
- TGI (KM20L2 colon): > 100 µM
- TGI (LOX IMVI melanoma): 53.8 µM
- TGI (LXFL 529 NSCLC): > 100 µM
- TGI (M14 melanoma): 34.9 µM
- TGI (M19-MEL melanoma): 28.3 µM
- TGI (MALME-3M melanoma): 41.5 µM
- TGI (MOLT-4 leukemia): > 100 µM
- TGI (NCI-H226 lung): > 100 µM
- TGI (NCI-H23 lung): 52.2 µM
- TGI (NCI-H460 lung): > 100 µM
- TGI (NCI-H522 lung): 90 µM
- TGI (OVCAR-3 ovarian): > 100 µM
- TGI (OVCAR-4 ovarian): > 100 µM
- TGI (OVCAR-5 ovarian): > 100 µM
- TGI (OVCAR-8 ovarian): > 100 µM
- TGI (RPMI-8226 leukemia): > 100 µM
- TGI (RXF 393 renal): > 100 µM
- TGI (SF-268 CNS): > 100 µM
- TGI (SF-295 CNS): 73.9 µM
- TGI (SF-539 CNS): 80.6 µM
- TGI (SK-MEL-2 melanoma): 92.3 µM
- TGI (SK-MEL-28 melanoma): 46.9 µM
- TGI (SK-MEL-5 melanoma): 32.3 µM
- TGI (SK-OV-3 ovarian): > 100 µM
- TGI (SN12C renal): 86.5 µM
- TGI (SNB-19 CNS): > 100 µM
- TGI (SNB-75 CNS): > 100 µM
- TGI (SNB-78 CNS): > 100 µM
- TGI (SW-620 colon): 57.1 µM
- TGI (TK-10 renal): > 100 µM
- TGI (U251 CNS): > 100 µM
- TGI (UACC-257 melanoma): 46.8 µM
- TGI (UACC-62 melanoma): 29.9 µM
- TGI (UO-31 renal): > 100 µM
- TGI (XF 498 CNS): 62.2 µM
